{"source": "PubChem BioAssay (NCI)", "assay_in_all_cases": "growth of human tumour cells (NCI), 384-well format", "key": {"MCF7 breast": {"system": "MCF7 breast"}, "OVCAR-5 ovarian": {"system": "OVCAR-5 ovarian"}, "SR leukemia": {"system": "SR leukemia"}, "NCI/ADR-RES ovarian": {"system": "NCI/ADR-RES ovarian"}, "UACC-257 melanoma": {"system": "UACC-257 melanoma"}, "LOX IMVI melanoma": {"system": "LOX IMVI melanoma"}, "COLO 205 colon": {"system": "COLO 205 colon"}, "HT29 colon": {"system": "HT29 colon"}, "SF-295 CNS": {"system": "SF-295 CNS"}, "A549 NSCLC": {"system": "A549 NSCLC"}, "DU-145 prostate": {"system": "DU-145 prostate"}, "KM12 colon": {"system": "KM12 colon"}, "MDA-MB-468 breast": {"system": "MDA-MB-468 breast"}}, "note": "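Here, GI50 denotes the concentration required for 50% inhibition of growth. TGI denotes the concentration required for complete inhibition of growth.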"}
{"smiles": "CCc1c(C#N)c(SC(C(N)=O)c2ccccc2)nc(N2CCC(N)CC2)c1C#N", "note": "(stereo unspecified)", "values": [{"measurement": "GI50", "setting": "MCF7 breast", "value": 5.36, "unit": "µM"}, {"measurement": "TGI", "setting": "MCF7 breast", "value": 17.7, "unit": "µM"}, {"measurement": "GI50", "setting": "OVCAR-5 ovarian", "value": 16.1, "unit": "µM"}, {"measurement": "TGI", "setting": "OVCAR-5 ovarian", "value": 29.6, "unit": "µM"}, {"measurement": "GI50", "setting": "SR leukemia", "value": 3.45, "unit": "µM"}, {"measurement": "TGI", "setting": "SR leukemia", "value": 11.8, "unit": "µM"}, {"measurement": "GI50", "setting": "NCI/ADR-RES ovarian", "value": 66.6, "unit": "µM"}, {"measurement": "TGI", "setting": "NCI/ADR-RES ovarian", "value": "> 100", "unit": "µM"}, {"measurement": "GI50", "setting": "UACC-257 melanoma", "value": 2220, "unit": "nM"}, {"measurement": "TGI", "setting": "UACC-257 melanoma", "value": 5.18, "unit": "µM"}, {"measurement": "GI50", "setting": "LOX IMVI melanoma", "value": 11.4, "unit": "µM"}, {"measurement": "TGI", "setting": "LOX IMVI melanoma", "value": 23.7, "unit": "µM"}, {"measurement": "GI50", "setting": "COLO 205 colon", "value": 3.42, "unit": "µM"}, {"measurement": "TGI", "setting": "COLO 205 colon", "value": 17.4, "unit": "µM"}, {"measurement": "GI50", "setting": "HT29 colon", "value": 16.9, "unit": "µM"}, {"measurement": "TGI", "setting": "HT29 colon", "value": 30.7, "unit": "µM"}, {"measurement": "GI50", "setting": "SF-295 CNS", "value": 13.2, "unit": "µM"}, {"measurement": "TGI", "setting": "SF-295 CNS", "value": 26, "unit": "µM"}, {"measurement": "GI50", "setting": "A549 NSCLC", "value": 14.4, "unit": "µM"}, {"measurement": "TGI", "setting": "A549 NSCLC", "value": 27.7, "unit": "µM"}, {"measurement": "GI50", "setting": "DU-145 prostate", "value": 3.33, "unit": "µM"}, {"measurement": "TGI", "setting": "DU-145 prostate", "value": 12.4, "unit": "µM"}, {"measurement": "GI50", "setting": "KM12 colon", "value": 11.2, "unit": "µM"}, {"measurement": "TGI", "setting": "KM12 colon", "value": 23.4, "unit": "µM"}, {"measurement": "GI50", "setting": "MDA-MB-468 breast", "value": 8.13, "unit": "µM"}, {"measurement": "TGI", "setting": "MDA-MB-468 breast", "value": 20.4, "unit": "µM"}]}
